The source made the active and inactive calls. No cut-off for these calls is given here.
Assays:
[1] = Antioxidant activity assessed as singlet 1O2 oxygen quenching activity after 2 mins by EPR spectrometry; format: functional
[2] = Antioxidant activity assessed as DPPH scavenging activity after 30 mins by microplate reader method; format: functional
[3] = Ratio of resveratrol IC50 to compound IC50 for singlet 1O2 oxygen quenching activity
[4] = Antioxidant activity assessed as inhibition of singlet 1O2 oxygen formation at 1.3 uM after 2 mins by EPR spectrometry; format: functional
[5] = Antioxidant activity assessed as complete inhibition of singlet 1O2 oxygen formation at 37 uM after 2 mins by EPR spectrometry
[6] = Antioxidant activity assessed as inhibition of TEMP-singlet 1O2 oxygen adduct formation measuring after 2 mins by EPR spectrometry; format: functional

Row | SMILES | IC50 [1] [µM] | IC50 [2] [µM] | other results
1 | Oc1ccc(/C=N/c2ccccc2O)cc1O | 2.26 | 12.1 | 
2 | Oc1ccc(/C=N/c2ccccc2O)cc1 | 0.99 | 24.3 | Ratio IC50 [3]: > 15; inhibition [4]: Active; inhibition [5]: Active; inhibition [6]: Dose-dependent effect
3 | COc1cccc(/C=N/c2ccccc2O)c1 | 1.42 | 24.9 | 
4 | Oc1cccc(/C=N/c2ccccc2O)c1 | 2.18 | 23.1 | 
5 | Oc1cccc(/C=N/c2ccccc2)c1 |  | > 1000 | 
6 | Oc1ccc(/N=C/c2cc(O)cc(O)c2)cc1 |  | 164 | 
7 | Oc1cccc(/N=C/c2ccccc2O)c1 |  | 468 | 
8 | Oc1ccc(/C=C/c2cc(O)cc(O)c2)cc1 [RESVERATROL] | 16.9 | 71.2 | 
9 | C(=N\c1ccccc1)/c1ccccc1 |  | > 1000 | 
10 | Oc1ccc(/N=C/c2ccccc2O)cc1 |  | 561 | 
11 | O=C1O[C@H]([C@@H](O)CO)C(O)=C1O [ASCORBIC ACID] |  | 19.3 | 
12 | COc1cccc(/C=N/c2ccc(C)cc2)c1 |  | > 1000 | 
13 | Oc1ccccc1/C=N/c1ccccc1O | 2.92 | 27.4 | 
14 | COc1cccc(/C=N/c2ccccc2C)c1 |  | > 1000 | 
15 | Oc1ccccc1/N=C/c1ccccc1 | 3.47 | 23.9 | 
16 | COc1cc(/C=C/C(=O)CC(=O)/C=C/c2ccc(O)c(OC)c2)ccc1O [CURCUMIN] | 2.75 |  | 
17 | Oc1ccccc1/C=N/c1ccccc1 [2-((PHENYLIMINO)METHYL)PHENOL] |  | > 1000 | 

Second part, led by results:

Row | IC50 [1] [µM] | IC50 [2] [µM] | SMILES | other results
18 |  | > 1000 | Cc1ccc(/N=C/c2cccc(O)c2)cc1 | 
19 |  | 362 | Oc1ccc(/C=N/c2cccc(O)c2)cc1 | 
20 | 1.3 | 28.1 | COc1ccc(/C=N/c2ccccc2O)cc1 | 
21 |  | 413 | COc1cc(/C=N/c2ccc(O)cc2)cc(OC)c1 | 
22 |  | > 1000 | COc1ccc(/C=N/c2ccc(OC)cc2)cc1 | 
23 |  | > 1000 | Cc1cccc(/N=C/c2ccc(O)cc2)c1 | 
24 |  | > 1000 | Cc1ccc(/N=C/c2ccc(O)cc2)cc1 | 
25 |  | 142 | Oc1ccc(/N=C/c2ccccc2)cc1 [4-(BENZYLIDENEAMINO)PHENOL] | 
26 |  | > 1000 | COc1ccc(/N=C/c2ccc(O)cc2)cc1 | 
